Consider one compound from patent US20170298402A1, “SELF-LABELING NUCLEIC ACIDS AND METHODS OF USE” (President and Fellows of Harvard College, priority 2014, published 2017).

This test deals with post-round 6 RNA pool. Put plainly: Streptavidin gel mobility shift of post-round 6 RNA pool with each electrophilic probe. It is filed as biochemical. The following applies: streptavidin incubation and gel mobility shift. As to the method:
The reaction between small-molecule probe(s) and the RNA pool was performed as follows: the RNA pool (1 μM) in buffer containing 150 mM NaCl, 25 mM Na-HEPES, pH 7.4, was heated at 65° C. for 5 minutes, then allowed to cool for an additional 5 minutes. MgCl2 (10 mM) was then added for a total volume of 45 μL and the solution incubated for 10 minutes, followed by addition of 1.3 mM of the biotinylated small-molecule probe in DMSO. After incubation for the desired time, the RNA was precipitated by the addition of 5 μL of 3 M NaOAc and 180 μL of EtOH.
The pellet resulting from EtOH precipitation of a reaction of RNA (750 ng) with a small-molecule probe was resuspended in 21 μL H2O. The RNA (7 μL) and streptavidin (NEB; 1 μg) were incubated at room temperature for 25 minutes and then combined with gel electrophoresis loading buffer. The sample was electrophoresed on a 10% PAGE denaturing gel (240 V, 35 minutes) and visualized following incubation with SYBR Green II (Life Technologies).
To identify the electrophile(s) that reacted with the enriched RNA, we performed one additional round of in vitro selection and then incubated the resulting post-round 6 RNA pool with each of the eight electrophilic probes.

For the compound `CC1O[C@H]1CCCOCCOC(=O)CCCCC1SCC2NC(=O)NC21` (stereo partly shown) [probe 1], the “reaction with the post-round 6 RNA pool” value is “reacted”.
